Assays:
IGFR1 = IGFR1 (Homo sapiens, UniProt P08069); assay: Luminex bead sandwich assay of IGFR1 autophosphorylation in HT29 cell lysate after IGF activation; assay type: cell-based; settings: HT29 cells, 30 μM inhibitor 45 min, IGF 100 ng/ml
FAK = FAK (Homo sapiens, UniProt Q05397); assay: Luminex bead sandwich assay of FAK autophosphorylation in HT29 cell lysate after FCS activation; assay type: cell-based; settings: HT29 cells, 30 μM inhibitor 45 min
Met = Met (Homo sapiens, UniProt P08581); assay: Luminex bead sandwich assay of Met autophosphorylation in HT29 cell lysate after HGF activation; settings: HT29 cells, 30 μM inhibitor 45 min, HGF 100 ng/ml
Chain of Met (P08581 25-1390): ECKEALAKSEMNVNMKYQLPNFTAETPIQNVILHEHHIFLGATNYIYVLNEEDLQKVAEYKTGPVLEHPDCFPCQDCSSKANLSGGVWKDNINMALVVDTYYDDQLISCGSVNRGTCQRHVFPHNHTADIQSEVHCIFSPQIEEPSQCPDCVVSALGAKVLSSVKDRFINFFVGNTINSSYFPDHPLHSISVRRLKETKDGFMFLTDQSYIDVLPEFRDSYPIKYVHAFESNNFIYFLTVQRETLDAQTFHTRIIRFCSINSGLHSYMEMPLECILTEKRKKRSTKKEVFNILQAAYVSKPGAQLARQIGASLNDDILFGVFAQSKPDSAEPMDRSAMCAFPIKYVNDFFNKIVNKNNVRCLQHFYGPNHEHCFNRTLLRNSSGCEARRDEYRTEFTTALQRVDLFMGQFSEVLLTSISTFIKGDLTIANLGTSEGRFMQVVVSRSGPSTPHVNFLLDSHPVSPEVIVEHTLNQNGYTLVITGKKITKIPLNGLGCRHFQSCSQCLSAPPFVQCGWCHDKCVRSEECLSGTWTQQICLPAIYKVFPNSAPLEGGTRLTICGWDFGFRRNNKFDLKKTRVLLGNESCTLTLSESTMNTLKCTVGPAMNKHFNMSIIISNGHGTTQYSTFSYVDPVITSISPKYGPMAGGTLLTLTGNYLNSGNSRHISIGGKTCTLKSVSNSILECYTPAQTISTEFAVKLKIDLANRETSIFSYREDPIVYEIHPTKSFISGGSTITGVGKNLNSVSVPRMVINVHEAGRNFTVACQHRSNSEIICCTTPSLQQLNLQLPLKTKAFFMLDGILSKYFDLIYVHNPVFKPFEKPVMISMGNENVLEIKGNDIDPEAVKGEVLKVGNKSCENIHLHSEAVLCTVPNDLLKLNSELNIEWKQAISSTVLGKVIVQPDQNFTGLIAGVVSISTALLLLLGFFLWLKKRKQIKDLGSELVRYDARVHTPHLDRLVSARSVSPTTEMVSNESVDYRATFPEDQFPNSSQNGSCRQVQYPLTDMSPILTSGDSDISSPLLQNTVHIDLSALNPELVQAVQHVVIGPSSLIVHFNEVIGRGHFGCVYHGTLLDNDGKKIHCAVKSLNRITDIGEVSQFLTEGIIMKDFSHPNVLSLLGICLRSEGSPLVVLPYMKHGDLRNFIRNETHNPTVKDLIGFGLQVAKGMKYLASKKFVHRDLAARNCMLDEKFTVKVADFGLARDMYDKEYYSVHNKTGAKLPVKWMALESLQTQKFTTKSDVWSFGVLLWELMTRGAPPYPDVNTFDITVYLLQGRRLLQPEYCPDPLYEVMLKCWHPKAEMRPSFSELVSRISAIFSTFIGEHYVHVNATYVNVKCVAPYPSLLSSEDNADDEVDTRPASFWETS
Protocol: Human tumor cell line HT29 (colorectal carcinoma) were obtained from ATCC and maintained in Dulbecco's modified Eagle's medium containing 10% fetal calf serum at 37° C. in 5% CO2. 16-20 h before inhibitor treatment HT29 cells were starved in medium without fetal calf serum. Cells were incubated for 45 min with 30 μM kinase inhibitor (EGFR-lnhibitor, FAK-inhibitor, IGFR1-inhibitor or Met-Inhibitor) or in medium without kinase inhibitor as a positive control.
Activation of the kinases was initiated for 10-15 min with 100 ng/ml of the corresponding ligands EGF, IGF, HGF for Met kinase or fetal calf serum (FCS) for FAK kinase. […]
2.5×10^6 Luminex microspheres were coupled with 50 μg/ml antibody as described by the manufacturer (capture antibodies for EGFR, IGFR, MET and Fak were obtained from R&D-Systems and Upstate). […] After three wash steps with assay buffer, phosphorylated tyrosin-residues were detected with a biotinylated anti-phospho-tyrosin antibody (1 h agitation at room temperature; Santa Cruz Biotechnology) and phycoerythrin-conjugated Streptavidin (45 min agitation at room temperature; Dianova). Microspheres were analysed in a Luminex™ 100 machine as described by the manufacturer.

Chain of IGFR1 (P08069 31-1367): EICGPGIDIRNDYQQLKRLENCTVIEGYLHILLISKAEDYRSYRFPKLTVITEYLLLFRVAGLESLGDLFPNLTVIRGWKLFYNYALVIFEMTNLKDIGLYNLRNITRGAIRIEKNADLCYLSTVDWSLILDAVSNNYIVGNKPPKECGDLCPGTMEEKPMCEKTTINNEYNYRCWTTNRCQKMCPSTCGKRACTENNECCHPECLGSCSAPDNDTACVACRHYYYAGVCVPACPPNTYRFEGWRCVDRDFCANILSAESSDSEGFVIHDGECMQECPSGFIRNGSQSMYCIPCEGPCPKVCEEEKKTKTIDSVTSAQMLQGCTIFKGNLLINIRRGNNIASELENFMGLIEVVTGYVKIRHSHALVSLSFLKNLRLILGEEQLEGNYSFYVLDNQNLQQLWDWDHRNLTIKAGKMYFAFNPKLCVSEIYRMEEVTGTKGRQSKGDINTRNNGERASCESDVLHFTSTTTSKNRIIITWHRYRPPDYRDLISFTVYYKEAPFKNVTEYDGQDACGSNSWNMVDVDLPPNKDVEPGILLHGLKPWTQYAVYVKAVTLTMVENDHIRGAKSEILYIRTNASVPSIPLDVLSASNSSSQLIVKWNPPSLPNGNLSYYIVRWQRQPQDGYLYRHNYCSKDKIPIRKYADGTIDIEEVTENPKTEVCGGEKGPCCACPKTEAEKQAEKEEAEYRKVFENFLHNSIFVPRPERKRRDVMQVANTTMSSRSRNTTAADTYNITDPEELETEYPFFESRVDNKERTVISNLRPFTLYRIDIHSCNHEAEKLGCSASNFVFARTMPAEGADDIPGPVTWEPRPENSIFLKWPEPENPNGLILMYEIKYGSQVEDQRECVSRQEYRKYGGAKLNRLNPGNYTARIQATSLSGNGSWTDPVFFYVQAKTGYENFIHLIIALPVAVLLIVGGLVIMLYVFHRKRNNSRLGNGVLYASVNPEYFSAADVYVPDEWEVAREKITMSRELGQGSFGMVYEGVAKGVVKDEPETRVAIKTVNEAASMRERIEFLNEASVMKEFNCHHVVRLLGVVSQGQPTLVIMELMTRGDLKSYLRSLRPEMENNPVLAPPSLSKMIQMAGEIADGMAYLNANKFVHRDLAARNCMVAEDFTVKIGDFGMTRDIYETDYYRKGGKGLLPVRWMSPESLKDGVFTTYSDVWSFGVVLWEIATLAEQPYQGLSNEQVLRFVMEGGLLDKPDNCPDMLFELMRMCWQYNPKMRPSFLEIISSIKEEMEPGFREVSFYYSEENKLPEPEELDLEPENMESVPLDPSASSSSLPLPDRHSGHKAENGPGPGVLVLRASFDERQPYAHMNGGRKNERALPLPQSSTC
Chain of FAK (Q05397 whole entry): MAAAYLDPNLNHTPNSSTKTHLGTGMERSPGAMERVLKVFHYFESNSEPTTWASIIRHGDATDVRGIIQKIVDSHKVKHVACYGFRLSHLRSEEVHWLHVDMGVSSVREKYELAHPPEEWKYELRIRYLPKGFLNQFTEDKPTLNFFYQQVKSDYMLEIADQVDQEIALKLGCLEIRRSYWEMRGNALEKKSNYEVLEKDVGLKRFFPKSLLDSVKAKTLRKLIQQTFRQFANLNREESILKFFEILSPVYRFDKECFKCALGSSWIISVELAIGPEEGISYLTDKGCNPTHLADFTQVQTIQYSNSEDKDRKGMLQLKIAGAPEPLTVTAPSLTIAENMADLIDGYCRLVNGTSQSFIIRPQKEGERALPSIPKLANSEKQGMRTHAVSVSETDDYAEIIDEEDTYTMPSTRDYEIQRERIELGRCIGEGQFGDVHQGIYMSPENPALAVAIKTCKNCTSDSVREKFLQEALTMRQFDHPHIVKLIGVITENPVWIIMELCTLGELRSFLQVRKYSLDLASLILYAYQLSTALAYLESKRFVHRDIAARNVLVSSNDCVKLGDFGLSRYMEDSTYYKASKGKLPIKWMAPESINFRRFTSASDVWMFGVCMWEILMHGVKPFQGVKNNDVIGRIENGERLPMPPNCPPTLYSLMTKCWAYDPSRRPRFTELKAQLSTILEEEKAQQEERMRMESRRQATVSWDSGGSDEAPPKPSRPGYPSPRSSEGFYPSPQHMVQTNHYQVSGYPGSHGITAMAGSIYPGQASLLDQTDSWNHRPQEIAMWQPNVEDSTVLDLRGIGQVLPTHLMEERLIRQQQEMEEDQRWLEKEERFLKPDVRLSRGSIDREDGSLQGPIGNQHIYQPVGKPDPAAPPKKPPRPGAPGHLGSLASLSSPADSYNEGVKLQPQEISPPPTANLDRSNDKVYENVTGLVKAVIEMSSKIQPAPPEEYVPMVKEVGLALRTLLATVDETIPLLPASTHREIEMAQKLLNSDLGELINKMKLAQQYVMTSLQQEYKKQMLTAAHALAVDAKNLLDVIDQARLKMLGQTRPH

SMILES | IGFR1-phosphorylation, mean fluorescence intensity (MFI) (IGFR1; multiple capture antibodies (EGFR, IGFR, FAK, Met) in one cavity, control without inhibitor MFI=673) | IGFR1-phosphorylation, mean fluorescence intensity (MFI) (IGFR1; single capture antibody (IGFR1) in one cavity, control without inhibitor MFI=529) | FAK-phosphorylation, mean fluorescence intensity (MFI) (FAK; multiple capture antibodies (EGFR, IGFR, FAK, Met) in one cavity, control without inhibitor MFI=1143) | FAK-phosphorylation, mean fluorescence intensity (MFI) (FAK; single capture antibody (FAK) in one cavity, control without inhibitor MFI=957) | Met-phosphorylation, mean fluorescence intensity (MFI) (Met; multiple capture antibodies (EGFR, IGFR, FAK, Met) in one cavity, control without inhibitor MFI=817) | Met-phosphorylation, mean fluorescence intensity (MFI) (Met; single capture antibody (Met) in one cavity, control without inhibitor MFI=675)
COc1cc(Nc2nccc(Nc3cnc4ccccc4c3)n2)cc(OC)c1OC [FAK-Kinase inhibitor] | 3 | 3 | 39 | 37 | – | –
Cc1[nH]c(/C=C2\C(=O)Nc3ccc(S(=O)(=O)Cc4c(Cl)cccc4Cl)cc32)c(C)c1C(=O)N1CCC[C@@H]1CN1CCCC1 [Met-Kinase inhibitor] | – | – | – | – | 9 | 9

— patent US7981633B2, “Method for measuring tyrosine kinase phosphorylation” (Merck Patent GmbH, priority 2005, dated 2011)
